In the Bradley open melting point set (2014):
“And” between values parts separate entries of the source, which are not always exact repeats. Identical values can stand only once.

melting point	Compound
108 °C	Cc1c(N)c(=O)n(-c2ccccc2)n1C [4-aminoantipyrine]
39 °C	CC(=O)c1ccc(F)c(Cl)c1 [3'-chloro-4'-fluoroacetophenone]
118 °C	CC(=O)OC1CCC2(C)C3CCC4=C(CCC4(C)C(C)OC(C)=O)C3CCC2(C)C1 (stereo unspecified)
148 °C	O=C(CCCN1CCC(O)(c2ccc(Cl)cc2)CC1)c1ccc(F)cc1 [haloperidol]
64 °C	C/C=C(\C)C(=O)O [tiglic acid]
128 °C	COC(=O)c1ccc(O)cc1 [methyl_4-hydroxybenzoate]
65 °C	OCc1ccnc(Cl)c1 [2-chloropyridine-4-methanol]
175 °C	C=C(C)Cn1c(N)cc(=O)n(C)c1=O [Uracil, 6-amino-3-methyl-1- (2-methylallyl)-]
10 °C	CC(=O)c1cccc2ccccc12 [1-acetylnaphthalene]
124 °C	CC(=O)OCC(OC(C)=O)C(OC(C)=O)C(OC(C)=O)C(OC(C)=O)C(=O)CBr (stereo unspecified) [3,4,5,6,7-penta-O-acetyl-1-bromo-1-deoxyhept-2-ulose]
144 °C	O=C(O)c1c(Cl)cccc1Cl [2,6-Dichlorobenzoic acid]
44 °C	c1ccc2c(c1)OCCOCCOCCOCCOCCO2 [benzo-18-crown-6]
33 °C	O=C(Cc1ccccc1)Cc1ccccc1 [1,3-diphenylacetone]
37 °C	CCOC(=O)Cc1ccc(O)cc1 [ethyl 4-hydroxyphenylacetate]
-115 °C	C=CC(C)(C)C [3,3-dimethyl-1-butene]
212 °C	Nc1ccn([C@H]2CC[C@@H](CO)O2)c(=O)n1 [Zalcitabine]
-60 °C	C1CCNC1 [Pyrrolidine]
120 °C	Oc1ccc(OCc2ccccc2)cc1 [Agerite]
17 °C	CC(C)(C)C#N [trimethylacetonitrile]
-129 °C	CC=C(/C)CCC [3-methyl-trans-2-hexene]
-13 °C	Cc1ccc(Cl)cc1Cl [2,4-dichlorotoluene]

melting point	Compound
166 °C	COc1ccc2c(c1)CC1(CCC(O)(c3ccc(C(C)(C)C)cc3)CC1)C2=O (stereo unspecified)
120 °C	O=C(CC(=O)c1ccccc1O)c1ccccc1 [benzoyl(2-hydroxybenzoyl)methane]
33 °C	COC(=O)n1ccc(C)n1 [methyl 3-methyl-1H-pyrazole-1-carboxylate]
-99 °C	CCC(C)OC(C)=O (stereo unspecified) [sec-butyl acetate]
159 °C	FC(F)(F)c1cc(-c2cccs2)nc2cc(-c3cccs3)nn12
181 °C	CN(C)c1ccc(/N=N/c2ccccc2C(=O)O)cc1 [methyl red]
138 °C	CCOC(=O)C(C#N)=Cc1ccc(Cl)cc1 [Ethyl 3-(4-chlorophenyl)-2-cyanoacrylate]
283 °C	Cc1cc(O)n2ncnc2n1 [7-hydroxy-5-methyl[1,2,4]triazolo[1,5-a]pyrimidine]
185 °C	O=C(O)/C(=C/c1cccc([N+](=O)[O-])c1)c1ccccc1 [(E)-2-phenyl-3-(3-nitrophenyl)propenoic acid]
233 °C	Nc1c(Br)cc(Br)cc1C(=O)O [2-amino-3,5-dibromobenzoic acid]
32 °C	O=[N+]([O-])c1cccc(CO)c1 [3-nitrobenzyl_alcohol]
103 °C	CC12CCCCC1CCC1C2CCC2(C)C1CCC2(O)C#Cc1ccccc1 (stereo unspecified) [21-phenylpregn-20-yn-17-ol]
98 °C	Oc1cccc2[nH]ccc12 [4-hydroxyindole]
-32 °C and -31 °C	O=C1CCCCC1 [Cyclohexanone]
-92 °C	CC(=O)C(C)C [3-methyl-2-butanone]
120 °C	O=c1c(-c2ccccc2)c1-c1ccccc1 [2,3-diphenyl-2-cyclopropen-1-one]
280 °C	Cc1cc2nc3c(=O)[nH]c(=O)nc-3n(C[C@H](O)[C@H](O)[C@H](O)CO)c2cc1C [Riboflavin]
250 °C	O=[N+]([O-])c1ccc(/N=N/c2c(O)ccc3ccccc23)cc1 [1-[(E)-(4-Nitrophenyl)diazenyl]-2-naphthol]
24 °C	CCCCCCCCCCCCCC=O [tetradecyl_aldehyde]
91 °C	O=C1CCCc2cc3c(c(CSc4ccccc4)c21)-c1ccccc1OC3
55 °C	O=[N+]([O-])c1ccccc1C#Cc1ccccn1 [2-[(2-nitrophenyl)ethynyl]pyridine]

melting point	Compound
130 °C	O=[N+]([O-])c1ccc(C=NO)cc1 [Benzaldehyde, 4-nitro-, oxime]
119 °C	OB(O)c1cc(F)ccc1OCc1ccccc1 [2-benzyloxy-5-fluorobenzeneboronic acid]
124 °C	COc1ccc(C=C2C3=C(CCCC3)OC3=C2CCCC3)cc1
185 °C	O=C(O)CCCc1ccc2ccc3cccc4ccc1c2c34 [1-pyrenebutyric acid]
170 °C	CC(=O)Nc1ccc(O)cc1 [Acetaminophen]
-124 °C	C#CCCC(C)C [5-methyl-1-hexyne]
97 °C	COc1ccccc1-c1ccc(/C=C/C(=O)c2ccco2)o1
-135 °C	C1=CCCC1 [Cyclopentene]
153 °C	O=C(O)CCCCC(=O)O [adipic_acid]
114 °C	Cc1ccc(C(=O)c2nn(-c3ccccc3)/c(=N\N=C\c3ccco3)s2)cc1
248 °C	CC(=O)Nc1c(Br)cc(N)cc1Br [4'-amino-2',6'-dibromoacetanilide]
22 °C	COc1ccc(C(=O)Cl)cc1 [4-methoxybenzoyl chloride]
237 °C	O=C(O)c1cccnc1 [nicotinic acid]
124 °C	CC(C)(C)NCC(O)COc1cccc2c1C[C@H](O)[C@H](O)C2 (stereo partly specified) [Nadolol]
144 °C	O=C(O)c1c(Cl)cccc1Cl [2,6-dichlorobenzoic_acid]
164 °C	Cc1ccc2cc([N+](=O)[O-])ccc2n1 [2-methyl-6-nitroquinoline]
149 °C	Cc1ccccc1/C=C(\C#N)c1nc2ccccc2s1 [(E)-2-Benzothiazol-2-yl-3-o-tolyl-acrylonitrile]
111 °C	Oc1cccc(O)c1 [resorcinol]
11 °C	Cc1cccc(O)c1 [m-Cresol]
124 °C	CC(C)(C)OC(=O)Nc1ccccc1B(O)O [2-(boc-amino)benzeneboronic acid]
102 °C	O=[N+]([O-])c1ccccc1C=Cc1ccc2ccccc2n1 [2-[2-(2-Nitro-phenyl)-vinyl]-quinoline]

melting point	Compound
124 °C	Nc1cccc(O)c1 [3-aminophenol]
18 °C and 18.5 °C and 16.8 °C	O=C(O)C1CC1 [cyclopropanecarboxylic acid]
252 °C	Cc1cc(O)c(C(C)C)cc1C1(c2cc(C(C)C)c(O)cc2C)OC(=O)c2ccccc21 [thymolphthalein]
240 °C	C[C@]12C=CC(=O)C=C1CC[C@@H]1[C@@H]2[C@@H](O)C[C@@]2(C)[C@H]1CC[C@]2(O)C(=O)CO [Prednisolone]
117 °C	CC(=O)c1ccccc1C(=O)O [2-acetylbenzoic acid]
101 °C	N#CCc1nc2ccccc2s1 [2-benzothiazoleacetonitrile]
-19 °C	OC1CCCC1 [cyclopentanol]
85 °C	C[C@@H](NC(=O)OCc1ccccc1)C(=O)O [N-benzyloxycarbonyl-D-alanine]
36 °C	CC(C)(C)C(=O)O [2,2-dimethylpropanoic_acid]
-43 °C	CCOC(=O)CC(C)=O [Ethyl 3-oxobutanoate]
-13 °C	N#Cc1ccccc1 [benzonitrile]
169 °C	CC(=O)Nc1ccc(O)cc1 [4-acetamidophenol]
206 °C	NNC(=O)c1cc(Cl)cc(Cl)c1 [3,5-dichlorobenzhydrazide]
190 °C	CC=1CCC[C@](C)(C)C=1/C=CC(C)=CC=CC(C)=CC(=O)O [Retinoic acid]
247 °C	O=Cc1ccc(C(=O)O)cc1 [p-formyl_benzoic_acid]
116 °C	N#Cc1c(OCC(F)(F)F)cccc1OCC(F)(F)F [2,6-bis(2,2,2-trifluoroethoxy)benzonitrile]
175 °C	O=Cc1cccc(C(=O)O)c1 [m-formyl_benzoic_acid]
43.5 °C	O=S(=O)(O)c1ccccc1 [Benzenesulfonic acid]

Compound	melting point
O=C1Nc2ccc(Cl)cc2C(c2ccccc2Cl)=NC1O (stereo unspecified) [lorazepam]	166 °C
Cc1ccc([N+](=O)[O-])cc1N [2-methyl-5-nitroaniline]	107 °C
CN(C)c1ccc(N)cc1 [N,N-dimethyl-p-phenylenediamine]	36 °C
CCC(C)C1(CC)C(=O)NC(=O)NC1=O (stereo unspecified) [Butabarbital]	166 °C
CC12CCC(=O)CC1CCC1C2CCC2(C)C(=O)CCC12O (stereo unspecified) [14-hydroxyandrostane-3,17-dione]	199 °C
CC(=O)Oc1cccc(C(=O)O)c1 [m-acetoxy_benzoic_acid]	133 °C
O=C(Cl)c1ccccc1 [Benzoyl chloride]	-1 °C
CC[C@@]1(O)C(=O)OCc2c1cc1n(c2=O)Cc2cc3ccccc3nc2-1 [Camptothecin]	276 °C
Nc1ccccc1C(=O)O [anthranilic acid]	147 °C
C=CC(=O)OCC [ethyl acrylate]	-71 °C
O=Cc1cccc2ccccc12 [1-naphthaldehyde]	2 °C
Cc1ccccc1 [Toluene]	-93 °C
c1ccc2c(c1)oc1ccccc12 [dibenzofuran]	82 °C
CC(C)c1ccc(O)cc1 [4-isopropylphenol]	60 °C
NC(=O)CI [2-Iodoacetamide]	94 °C
O=[N+]([O-])c1c(Br)sc(Br)c1[N+](=O)[O-] [2,5-dibromo-3,4-dinitrothiophene]	136 °C
ClCc1ccccc1 [benzyl_chloride]	-43 °C
ClC(Cl)(Cl)Cl [tetrachloromethane]	-23 °C
CCC(Br)CBr (stereo unspecified) [1,2-dibromobutane]	-65 °C
Brc1ccc(Br)cc1 [1,4-Dibromobenzene]	88 °C
